Assays:
M. tuberculosis H37Rv = assay: In vitro MIC against M. tuberculosis H37Rv, MABA; assay type: cell-based
M. tuberculosis H37R = assay: In vitro MIC against M. tuberculosis H37Rv, LORA; assay type: cell-based; conditions: Mycobacterium tuberculosis, read-out: M. tuberculosis H37R LORA (MIC) (μg/mL)
M. bovis ATCC35737 = assay type: cell-based
Vero Cell = assay: Vero cell cytotoxicity
MDR1-MDCK cells = assay: Bidirectional permeability in MDR1-MDCK cells; assay type: in vitro ADME; conditions: conclusion
Description: MDR1-MDCK cells permanently expressing human P-glycoprotein were inoculated in a 96-well Insert cell plate and cultured for 4-7 days to form convergent monolayer cells.
After the incubation, the sample solutions in the donor wells and receiver wells were immediately mixed with cold acetonitrile solution containing an internal standard. The amount of the intracellular accumulated compound was measured by lysing the cells with the cold acetonitrile solution containing an internal standard. The concentration of the test compound in all samples (including the starting dosing solution, the supernatant in the donor wells, the receiving solution, and the cell lysate) was analyzed by LC/MS/MS method. The concentration of the test compound was expressed by the ratio of the peak area of the compound to the peak area of the internal standard.
The standard conditions for the transport experiment of the compound represented by formula (I) were as follows:
Test concentration: 2 (DMSO≤1%);
Direction: bidirectional transport, including A→B and B→A these two directions;
Inoculated time: single time, 2.5 hours;
Buffer for transport: HBSS, pH 7.4;
Inoculated condition: 37° C., 5% CO2, 95% relative humidity.

[1] = system: Mycobacterium tuberculosis Erdman, ATCC 35801; assay: In vivo efficacy in mouse model of chronic infection; conditions: mice, whole lung, day 32 to 59 after infection, counted day 60
[2] = Solid stability test under high temperature and high humidity conditions
Excerpt: The samples placed under different conditions were sampled and tested on the 5th day and 10th day, and the test results were compared with the initial test results of 0 days.

physchem [3] = conditions: 22 °C, pH 2, aqueous buffer, kinetic from dmso stock
Description: The test compound and the control compound (10 mM DMSO mother liquor, 10 μL per well) were added to a 96-well plate containing 490 μL buffer per well. After 2 minutes of vortexing, the sample plate were incubated for 24 hours at room temperature (22±2° C.) on a shaker. 200 μL sample was then transferred to a Multi Screen filter plate (polycarbonate membrane), filtered through a millipore vacuum manifold and the filtrate was collected. The concentration of the compound in the filtrate was determined by HPLC-UV. Three UV standard solution of different concentrations and the solubility test sample were injected successively. Each sample was inserted twice, and the concentration was calculated by standard curve line and averaged.

[4] = Stability test in different solvents for the crystal form A; conditions: stirred at 40° C. for 2 days
Description: The mixture was stirred at 40° C. for 2 days, and then centrifuged. The solid in all samples was collected, dried in a vacuum oven (40° C.) overnight, and was tested for crystal form by XRPD.

physchem [5] = conditions: thermodynamic from solid, Solubility (mg/mL)
Description: The solubility test was carried out by using a manual stepwise dilution method under normal temperature conditions while observing the dissolution. About 2 mg of the crystal form C of the compound represented by formula (I) was added into different vials used in the liquid phase, and then an organic solvent or solvent mixture was added in small portions to observe the dissolution of the compound.

[6] = high temperature (60° C., open), 5th day
[7] = high temperature (60° C., open), 10th day

With C[C@]1(CN2Cc3nc(-c4ccc(F)cc4)sc3C2)Cn2cc([N+](=O)[O-])nc2O1 [the compound represented by formula (I)] the MIC (M. tuberculosis H37Rv; Mycobacterium tuberculosis, H37RV) was less than 1 µg/mL, the “inhibitory activity against M. tuberculosis H37Rv strain (in words)” value (M. tuberculosis H37Rv; conclusion) was “good inhibitory activity” and the MIC (M. tuberculosis H37R) was 1 to 32 µg/mL. For the same compound, the “M. bovis ATCC35737” value (M. bovis ATCC35737; MIC, BCG strain, Alamar Blue) was less than 1 µg/mL, the “inhibitory activity against M. bovis BCG strain (in words)” value (M. bovis ATCC35737; conclusion) was “good inhibitory activity” and the IC50 (Vero Cell; Chlorocebus sabaeus, Vero, read-out: Vero Cell (IC50) (μg/mL)) was greater than 32 µg/mL. For the same compound, the “cytotoxicity (in words)” value (Vero Cell; conclusion) was “without cytotoxicity” and the “permeability compared to the reference compound OPC-67683 (in words)” value (MDR1-MDCK cells) was “better permeability”.

With NC(=O)c1cnccn1 [pyrazinamide, reference compound] the Log value reduced ([1]; 150 mg/kg oral) was 1.2 and the Number of colony ([1]; 150 mg/kg oral) was 1.2E+05.

Work on C[C@]1(COc2ccc(N3CCC(Oc4ccc(OC(F)(F)F)cc4)CC3)cc2)Cn2cc([N+](=O)[O-])nc2O1 [OPC-67683, Delamanid, reference compound] yielded a Log value reduced ([1]; 100 mg/kg oral) of 0.9 and a Number of colony ([1]; 100 mg/kg oral) of 2.3E+05.

With C[C@]1(CN2Cc3nc(-c4ccc(F)cc4)sc3C2)Cn2cc([N+](=O)[O-])nc2O1.O=S(=O)(O)c1ccccc1 the Appearance ([2]; 0 day) was “grey powder”, the “Total impurity (%)” value ([2]; 0 day) was 1.32% and the XRPD ([2]; 0 day) was “crystal”. The Appearance ([2]; […], open), 5th day) was “grey powder”, the “Total impurity (%)” value ([2]; […], open), 5th day) was 1.32% and the XRPD ([2]; […], open), 5th day) was “crystal”. For the same compound, the “Total impurity (%)” value ([2]; […], open), 10th day) was 1.60%, the XRPD ([2]; […], open), 10th day) was “crystal” and the Appearance [2, 6] was “grey powder”. The “Total impurity (%)” value [2, 6] was 1.49%, the XRPD [2, 6] was “crystal” and the “Total impurity (%)” value [2, 7] was 1.86%. For the same compound, the XRPD [2, 7] was “crystal”, the solubility kinetic at 24 h (physchem [3]) was 32.2 µM and the “Appearance (2 days)” value ([4]; acetonitrile-water (1:1)) was “suspension”. The “Result (crystal form by XRPD)” value ([4]; acetonitrile-water (1:1)) was “crystal form A”, the “Appearance (2 days)” value ([4]; acetonitrile) was “suspension” and the “Result (crystal form by XRPD)” value ([4]; acetonitrile) was “crystal form A”. For the same compound, the “Appearance (2 days)” value ([4]; ethanol-water (1:1)) was “suspension”, the “Result (crystal form by XRPD)” value ([4]; ethanol-water (1:1)) was “crystal form A” and the “Appearance (2 days)” value ([4]; ethanol) was “suspension”. The “Result (crystal form by XRPD)” value ([4]; ethanol) was “crystal form A”, the “Appearance (2 days)” value ([4]; ethyl acetate) was “suspension” and the “Result (crystal form by XRPD)” value ([4]; ethyl acetate) was “crystal form A”. The “Appearance (2 days)” value ([4]; isopropanol-water (1:1)) was “suspension”, the “Result (crystal form by XRPD)” value ([4]; isopropanol-water (1:1)) was “crystal form A” and the “Appearance (2 days)” value ([4]; isopropanol) was “suspension”. For the same compound, the “Result (crystal form by XRPD)” value ([4]; isopropanol) was “crystal form A”.

Work on CO[C@H]1/C=C/O[C@@]2(C)Oc3c(C)c(O)c4c(O)c(c(/C=N/N5CCN(C)CC5)c(O)c4c3C2=O)NC(=O)/C(C)=C\C=C\[C@H](C)[C@H](O)[C@@H](C)[C@@H](O)[C@@H](C)[C@H](OC(C)=O)[C@@H]1C [Rifampin, reference compound] yielded a Log value reduced ([1]; 15 mg/kg oral) of 2.2 and a Number of colony ([1]; 15 mg/kg oral) of 1.2E+04.

C[C@]1(CN2Cc3nc(-c4ccc(F)cc4)sc3C2)Cn2cc([N+](=O)[O-])nc2O1.O=S(=O)(O)c1ccccc1 [the compound represented by formula (II)] showed a Log value reduced ([1]; 10 mg/kg oral) of 0.9, a Number of colony ([1]; 10 mg/kg oral) of 2.7E+05 and a Log value reduced ([1]; 30 mg/kg oral) of 1.3. It also gave a Number of colony ([1]; 30 mg/kg oral) of 1.0E+05, a Log value reduced ([1]; 100 mg/kg oral) of 1.7 and a Number of colony ([1]; 100 mg/kg oral) of 4.1E+04.

With C[C@]1(CN2Cc3nc(-c4ccc(F)cc4)sc3C2)Cn2cc([N+](=O)[O-])nc2O1 the solubility (physchem [5]; aqueous with cosolvent or surfactant or cyclodextrin) was less than 2000 µg/mL and the solubility (physchem [5]; water) was less than 2000 µg/mL.

From patent publication US20190276475A1, “CRYSTAL AND SALT OF NITROIMIDAZOLE, AND MANUFACTURING METHOD THEREOF” (priority 2016, published 2019)
